Several values for one entry are separate records, joined by “and”; a condition that tells them apart may be missing. Identical values can stand only once. Like-named read-outs stand apart in the source and are kept apart here.
Tests used:
Glycolate oxidase (GO) = Glycolate oxidase (GO) (Homo sapiens (Human), UniProt Q9UJM8); test: GO biochemical assay (Amplex Red, 384-well)
Experimental: Amplex® Red Hydrogen Peroxide/Peroxidase Assay Kit (Catalog no. A22188) was purchased from Thermo Fisher (Waltham, MA).
The reaction was mixed and incubated at room temperature for 20 min followed by reading the plates by EnVision plate reader (Perkin Elmer, San Jose, CA) with excitation at 570 nm and emission 585 nm. […] The % inhibition as calculated as 100%×(Well-Negative)/(Positive-Negative)

[1] = Plasma pharmacokinetics after an oral dose of Example 2 in SD rats; assay type: in vivo, Sprague Dawley rats; conditions: Example 2 in plasma, PO Example 2 5 mg/kg
Experimental: An oral dose of Example 2 was formulated in a sterile solution of 50% water, 37.5% PEG 300, and 12.5% DMSO at 1.0 mg/mL. The dosing group consisted of three fasted male Sprague Dawley rats. At dosing, the animals weighed between 0.26 and 0.27 kg. For the oral dosing group, the formulated dose was administered via oral gavage at 5.0 mL/kg for a dose of 5.0 mg/kg. Non-compartmental pharmacokinetic analysis was performed on the plasma concentration-time data.

[2] = male, Sprague Dawley, rat, plasma, po, 5 mg/kg, individual rats
[3] = male, Sprague Dawley, rat, plasma, po, 5 mg/kg, mean n=3

Sequence of Glycolate oxidase (GO) (Q9UJM8 whole entry): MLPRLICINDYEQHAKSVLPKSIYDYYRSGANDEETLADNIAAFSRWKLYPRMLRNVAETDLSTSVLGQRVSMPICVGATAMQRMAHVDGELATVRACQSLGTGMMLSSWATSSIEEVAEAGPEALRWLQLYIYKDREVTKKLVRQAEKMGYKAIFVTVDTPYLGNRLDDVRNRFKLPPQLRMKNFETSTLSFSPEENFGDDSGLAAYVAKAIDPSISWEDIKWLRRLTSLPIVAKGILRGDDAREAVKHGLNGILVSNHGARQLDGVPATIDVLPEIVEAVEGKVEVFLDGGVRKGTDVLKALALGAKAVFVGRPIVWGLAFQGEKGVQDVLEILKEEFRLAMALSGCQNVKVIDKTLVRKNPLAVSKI

SMILES	IC50 (Glycolate oxidase (GO)) [nM]	further results
CCOC(=O)c1[nH]nnc1-c1ccc(-c2ccc(Cl)cc2)cc1 [Example 1]	1000	
CCOC(=O)c1[nH]nnc1-c1ccc(-c2ccc(C(N)=O)cc2)cc1 [Example 2, ethyl 4-(4carbamoyl-[1,1biphenyl]-4-yl)-1H-1,2,3-triazole-5-carboxylate]	1000	AUC0-24 h ([1]; individual rats): 1.55 µM·h and 1.85 µM·h; AUCinf ([1]; individual rats): 1.57 µM·h and 1.9 µM·h; Cmax ([1]; individual rats): 2530 nM and 2110 nM; Tmax ([1]; individual rats): 30 min; AUCinf ([1]; mean n=3): 1.6 µM·h; AUC(0-inf) [1, 2]: 1.34 µM·h; Cmax [1, 2]: 2540 nM; AUC(0-t) ([1]; male, Sprague Dawley, rat, plasma, po, 5 mg/kg, individual rats, read-out: AUC0-24 h): 1.27 µM·h; Tmax ([1]; male, Sprague Dawley, rat, plasma, po, 5 mg/kg, individual rats, read-out: Tmax): 15 min; AUC(0-inf) [1, 3]: 1.6 ± 0.28 µM·h; Cmax [1, 3]: 2390 ± 246 nM; AUC(0-t) ([1]; male, Sprague Dawley, rat, plasma, po, 5 mg/kg, mean n=3, read-out: AUC0-24 h): 1.56 µM·h; Tmax ([1]; male, Sprague Dawley, rat, plasma, po, 5 mg/kg, mean n=3, read-out: Tmax): 19.8 min
Cn1nnc(C(=O)O)c1-c1ccc(F)c(Cl)c1 [Example 17, 5-(3-chloro-4-fluorophenyl)-1-methyl-1H-1,2,3-triazole-4-carboxylic acid]	≥ 10000	
O=C(O)c1[nH]nnc1-c1cccc(Cl)c1F [Example 22, 4-(3-chloro-2-fluorophenyl)-1H-1,2,3-triazole-5-carboxylic acid]	159	
O=C(O)c1n[nH]cc1-c1cccnc1 [Example 35, 4-(pyridin-3-yl)-1H-pyrazole-3-carboxylic acid]	≥ 10000	
O=C(O)c1[nH]nnc1-c1ccc(-c2cccc(S(=O)(=O)N3CCOCC3)c2)cc1 [Example 75]	18.6	
O=C(O)c1[nH]nnc1-c1ccc(-c2ccc(S(=O)(=O)N3CCCCC3)cc2)cc1 [Example 79]	244	
O=C(O)c1[nH]nnc1-c1ccc(-c2ccc(N3CCOCC3)cc2)cc1 [Example 84]	1000	
O=C(O)c1[nH]ncc1-c1ccccn1 [Example 140, 4-(pyridin-2-yl)-1H-pyrazole-5-carboxylic acid]	≥ 10000	
O=C(O)c1[nH]nnc1-c1cscn1 [Example 141, 4-(thiazol-4-yl)-1H-1,2,3-triazole-5-carboxylic acid]	≥ 10000	
O=C(O)c1[nH]nnc1-c1ccc(-c2ccc(Cl)c(S(=O)(=O)N3CCOCC3)c2)cc1 [Example 146]	33.6	
Cn1nnc(-c2ccc(F)c(Cl)c2)c1C(=O)O [Example 150, 4-(3-chloro-4-fluorophenyl)-1-methyl-11H-1,2,3-triazole-5-carboxylic acid]	≥ 10000	
CC1(C)c2cc(-c3ccc(-c4nn[nH]c4C(=O)O)cc3)ccc2C(=O)N1CC(F)(F)F [Example 153, 4-(4-(3,3-dimethyl-1-oxo-2-(2,2,2-trifluoroethyl)isoindolin-5-yl)phenyl)-1H-1,2,3-triazole-5-carboxylic acid]	119	
O=C(O)c1[nH]nnc1C#Cc1ccc(Cl)cc1 [Example 160, 4-((4-chlorophenyl)ethynyl)-1H-1,2,3-triazole-5-carboxylic acid]	226	
CC(=O)N1CC=C(c2ccc(-c3nn[nH]c3C(=O)O)cc2)CC1 [Example 162, 4-(4-(1-acetyl-1,2,3,6-tetrahydropyridin-4-yl)phenyl)-1H-1,2,3-triazole-5-carboxylic acid]	88.2	
CC(=O)N1CCC(c2ccc(-c3nn[nH]c3C(=O)O)cc2)CC1 [Example 163, 4-(4-(1-acetylpiperidin-4-yl)phenyl)-1H-1,2,3-triazole-5-carboxylic acid]	1000	
O=C(O)c1[nH]ncc1-c1ccc2c(c1)C(F)(F)c1cc(-c3c[nH]nn3)ccc1-2 [Example 170, 4-(9,9-difluoro-7-(1H-1,2,3-triazol-4-yl)-9H-fluoren-2-yl)-1H-pyrazole-5-carboxylic acid]	16.5	
O=C(O)c1c[nH]nc1-c1ccc(F)c(Cl)c1 [Example 182, 3-(3-chloro-4-fluorophenyl)-1H-pyrazole-4-carboxylic acid]	> 10000	
O=C(O)c1c[nH]nc1-c1cc(Cl)cc(Cl)c1 [Example 183, 3-(3,5-dichlorophenyl)-1H-pyrazole-4-carboxylic acid]	> 10000	
O=C(O)c1[nH]cnc1-c1ccc(F)c(Cl)c1 [Example 184, 4-(3-chloro-4-fluorophenyl)-1H-imidazole-5-carboxylic acid]	> 10000	
O=C(O)c1[nH]cnc1-c1cc(Cl)cc(Cl)c1 [Example 185, 4-(3,5-dichlorophenyl)-1H-imidazole-5-carboxylic acid]	> 10000	

More lines, main results first:

IC50 (Glycolate oxidase (GO)) [nM]	SMILES	further results
≥ 10000	Cc1ccccc1-c1nn[nH]c1C(=O)O [Example 3, 4-(o-tolyl)-1H-1,2,3-triazole-5-carboxylic acid]	
≥ 10000	Cc1ccc(-c2nn[nH]c2C(=O)O)cc1 [Example 5, 4-(p-tolyl)-1H-1,2,3-triazole-5-carboxylic acid]	
1310	O=C(O)c1[nH]nnc1-c1cccc(F)c1 [Example 8, 4-(3-fluorophenyl)-1H-1,2,3-triazole-5-carboxylic acid]	
130	N#Cc1cccc(-c2nn[nH]c2C(=O)O)c1 [Example 12]	
196	O=C(O)c1[nH]nnc1-c1ccc(Cl)c(Cl)c1 [Example 19, 4-(3,4-dichlorophenyl)-1H-1,2,3-triazole-5-carboxylic acid]	
330	O=C(O)c1[nH]nnc1-c1ccc2c(c1)OC(F)(F)O2 [Example 29, 4-(2,2-difluorobenzo[d][1,3]dioxol-5-yl)-1H-1,2,3-triazole-5-carboxylic acid]	
1000	COc1cc2ccc(-c3nn[nH]c3C(=O)O)cc2cn1 [Example 40, 4-(3-methoxyisoquinolin-7-yl)-1H-1,2,3-triazole-5-carboxylic acid]	
377	Cc1ccc(-c2ccc(-c3nn[nH]c3C(=O)O)cc2)cc1 [Example 53]	
4300	CC(C)(C)c1ccc(-c2ccc(-c3nn[nH]c3C(=O)O)cc2)cc1 [Example 54]	
563	O=C(O)c1[nH]nnc1-c1ccc(-c2ccc(OC(F)(F)F)cc2)cc1 [Example 55]	
94.6	NS(=O)(=O)c1ccc(-c2ccc(-c3nn[nH]c3C(=O)O)cc2)cc1 [Example 77]	
136	O=C(O)c1[nH]nnc1-c1ccc(-c2ccc(N3CCCC3=O)cc2)cc1 [Example 83]	
23.8	O=C(O)c1[nH]nnc1-c1ccc2c(c1)oc1ccccc12 [Example 87, 4-(dibenzo[b,d]furan-3-yl)-1H-1,2,3-triazole-5-carboxylic acid]	
77.6	O=C(O)c1[nH]nnc1-c1ccc2c(c1)[nH]c1ccccc12 [Example 88, 4-(9H-carbazol-2-yl)-1H-1,2,3-triazole-5-carboxylic acid]	
64.5	Cc1cc(-c2ccc(-c3nn[nH]c3C(=O)O)cc2)ccc1Cl [Example 91]	
408	O=C(O)c1[nH]nnc1-c1ccc(-c2cccc(-c3ccccc3)c2)cc1 [Example 99, 4-([1,131terphenyl]-4-yl)-1H-1,2,3-triazole-5-carboxylic acid]	
93.2	O=C(O)c1[nH]nnc1-c1ccc(-c2ccc(-c3ccncc3)cc2)cc1 [Example 103]	
22.7	Cc1cnc(-c2ccc(-c3ccc(-c4nn[nH]c4C(=O)O)cc3)cc2)s1 [Example 109]	
37.5	O=C(O)c1[nH]nnc1-c1ccc(-c2ccc(-c3ncco3)cc2)cc1 [Example 112]	
19.7	Cc1cc(-c2ccc(-c3ccc(-c4nn[nH]c4C(=O)O)cc3)cc2)nn1C [Example 117]	
10.7	O=C(O)c1[nH]nnc1-c1ccc(-c2ccc(-c3nc4ccccc4s3)cc2)cc1 [Example 122]	
16.1	O=C(O)c1[nH]nnc1-c1ccc(-c2ccc(-c3cn[nH]c3)cc2)cc1 [Example 124]	
4.14	O=C(O)c1[nH]nnc1-c1ccc(-c2ccc(-c3cnn[nH]3)cc2)cc1 [Example 127]	
24	O=C(O)c1[nH]nnc1-c1ccc(-c2ccc(-c3c[nH]cn3)cc2)cc1 [Example 129]	
4.67	Cc1[nH]nnc1-c1ccc(-c2ccc(-c3nn[nH]c3C(=O)O)cc2)cc1 [Example 131]	
≥ 10000	O=C(O)c1[nH]nnc1-c1ccccn1 [Example 139, 4-(pyridin-2-yl)-1H-1,2,3-triazole-5-carboxylic acid]	
1000	CN(C)C(=O)c1cccc(-c2ccc(-c3nn[nH]c3C(=O)O)cc2)c1 [Example 143]	

Reference: US20240091200A1 (Lilac Therapeutics, Inc., priority 2019, published 2024)
